According to US20240300959A1, “BALASUBRAMIDE DERIVATIVE AND USE THEREOF IN PREPARATION OF MEDICINE FOR TREATING ACUTE LUNG INJURY” (Guangdong Pharmaceutical University, priority 2023, published 2024):
Where “and” joins values, the source holds several entries; their conditions need not be identical. Equal entries are not always repeated. Where two headings read alike, the source gives them in different places.

Legend:
[1] = tested on: TNF-α in RAW264.7 macrophages stimulated by lipopolysaccharide; experiment: TNF-α ELISA in cell supernatant of LPS-stimulated RAW264.7 macrophages; type: cell-based, mice
Method: RAW264.7 cells were inoculated into a 96-well plate at a density of 1×10^5 per well. When the cell density was 70%-80%, 18 balasubramide derivatives were prepared into 10 mM working solutions with DMSO, respectively, and then used to pretreat mononuclear macrophages RAW264.7 of mice at a final concentration of 10 μM. After 3 h, lipopolysaccharide (LPS, 100 ng/mL) was added into all wells for action for 2 h except for a control group. A supernatant was collected for later use, and the expression level of an inflammatory factor TNF-α in the cell supernatant was detected according to an operation instruction of a commercial ELISA kit.
(§1) RAW264.7 cells were inoculated into a 96-well plate at a density of 1×10^5 per well. When the cell density was 70%-80%, the RAW264.7 cells were pretreated with (+)3C-20 ([…]). After 3 h, lipopolysaccharide (LPS, 100 ng/mL) was added into all wells for action for 2 h except for a control group. The expression level of an inflammatory factor TNF-α in a cell supernatant was detected according to an operation instruction of a commercial ELISA kit, and the cell viability at different administration concentrations of (+)3C-20 was determined according to an operation instruction of a CCK-8 kit.

RAW264.7 cells [2] = experiment: Cytotoxicity test, CCK-8 cell viability of RAW264.7 cells (24 h); type: cell-based, mice; conditions: 10 μM, RAW264.7 cell viability
Method: RAW264.7 cells were inoculated into a 96-well plate at a density of 1×10^5 per well. When the cell density was 70%-80%, the RAW264.7 cells were pretreated with 10 mM working solutions prepared from 18 balasubramide derivatives at a final concentration of 10 μM for 24 h, and then the cell viability was determined by a CCK-8 method.

RAW264.7 cells [3] = experiment: CCK-8 cell viability of RAW264.7 macrophages at different concentrations of (+)3C-20 (LPS experiment); type: cell-based, mice; conditions: RAW264.7 cell viability
Method: as §1

[4] = tested on: inflammation genes in RAW264.7 macrophages stimulated by lipopolysaccharide; experiment: qPCR expression level of inflammation genes in LPS-stimulated RAW264.7 macrophages; type: cell-based, mice; conditions: RAW264.7, LPS
Method: RAW264.7 cells were inoculated into a 24-well plate at a density of 5×10^5 per well. When the cell density was 70%-80%, the RAW264.7 cells were pretreated with (+)3C-20 (5 μM, 10 μM, 20 μM). After 3 h, lipopolysaccharide (LPS, 100 ng/mL) was added into all wells for action for 2 h except for a control group. A supernatant was discarded, and the cells at the bottom of the plate were fully lysed with Trizol (Nanjing Vazyme, R401-01). RNA was extracted according to an RNA extraction instruction, and subjected to reverse transcription to obtain cDNA, followed by qPCR according to an amplification method at 95° C. for a total of 5 min (at 95° C. for 10 s, and at 60° C. for 30 s) in 40 cycles, and finally statistical calculation was performed by ΔCt.

[5] = tested on: mice with sepsis and lung injury caused by intraperitoneal injection of lipopolysaccharide; experiment: Acute lung injury caused by sepsis (intraperitoneal injection of lipopolysaccharide); type: in vivo, ICR mice; conditions: for Content of TNF-α in serum (% of Model) / Area percentage of alveolar cells (%): 6 h after i.p. LPS; for Area percentage of alveolar cells (%): H&E lung sections; for Change multiple of IL-1β / Change multiple of IL-6 / Change multiple of TNF-α / Change multiple of iNOS: lung tissue RT-PCR; for Lung index (%): 6 h after i.p. LPS 10 mg/kg; for Body weight (Day 1) / Body weight (Day 2) / Body weight (Day 3): i.p. LPS sepsis model, in g (unit assumed)
Method: Administration and grouping of animals: Male ICR mice were used as experimental animals, which were randomly divided into a control group, a model group, a positive administration group and administration groups according to the body weight. The control group and the model group were administered with a solvent by intraperitoneal injection (the solvent was prepared from DMSO, Kolliphor HS15 and Saline at a ratio of 1:2:7), the positive administration group was administered with 5 mg/kg dexamethasone (DEX) by intraperitoneal injection, and the administration groups were administered with (+)3C-20 at a concentration of 10 mg/kg and 50 mg/kg, respectively, by intraperitoneal injection. The dexamethasone and the (+)3C-20 were dissolved in the above solvent and were clear and transparent. The administration was continued for 3 days. 2 h after the last administration, all the other groups were administered with LPS (10 mg/kg) by intraperitoneal injection while the control group was administered with an equal volume of normal saline by intraperitoneal injection. Body weight and lung index: The mice were weighed and randomly divided on day 1 and continuously weighed for 3 days before administration, and growth conditions of the mice were measured by statistics. The mice were administered with LPS by intraperitoneal injection 2 h after administration on day 3, then the mice were dissected 6 h later, and the lungs were taken, weighed and recorded.
On day 3, 6 h after the intraperitoneal injection of LPS, whole blood was collected from eye sockets and then subjected to centrifugation to prepare serum, and the serum was frozen at −80° C. The lungs were subjected to perfusion with PBS and fixed by paraformaldehyde, and the fixed lungs were stained with hematoxylin-eosin (H&E) after dehydration, paraffin embedding and sectioning. The serum was tested by a commercial TNF-α ELISA kit. Histopathological results and data statistics are shown in FIG. 7-1, FIG. 7-2 and Table 7.
A small amount of frozen lung tissues were taken and fully ground, and the expression of inflammation related genes in the lung tissues was detected by an RT-PCR technology according to an operation instruction of an RNA extraction kit.

## O=C(CCc1ccc(C(F)(F)F)cc1)O[C@@H]1C(=O)NCCc2c([nH]c3ccccc23)[C@H]1c1ccc(C(F)(F)F)cc1 [(+)-3C-20]
[1]; 10 μM, RAW264.7, LPS
  anti-inflammatory activity (inhibition of expression of TNF-α in macrophages), in words: better anti-inflammatory activity than other derivatives
[1]; Mus musculus, RAW264.7, 0.1 μM, RAW264.7, LPS 100 ng/mL, read-out: Percentage of TNF-α in a model group (%)
  activity at 0.1 µM: 99.83 ± 0.89%
[1]; Mus musculus, RAW264.7, 0.5 μM, RAW264.7, LPS 100 ng/mL, read-out: Percentage of TNF-α in a model group (%)
  activity at 0.5 µM: 98.1 ± 1.56%
[1]; Mus musculus, RAW264.7, 1 μM, RAW264.7, LPS 100 ng/mL, read-out: Percentage of TNF-α in a model group (%)
  activity at 1 µM: 94.38 ± 0.45%
[1]; Mus musculus, RAW264.7, 2 μM, RAW264.7, LPS 100 ng/mL, read-out: Percentage of TNF-α in a model group (%)
  activity at 2 µM: 88.6%
[1]; Mus musculus, RAW264.7, 5 μM, RAW264.7, LPS 100 ng/mL, read-out: Percentage of TNF-α in a model group (%)
  activity at 5 µM: 83.7%
[1]; Mus musculus, RAW264.7, 10 μM, RAW264.7, LPS 100 ng/mL (Table 3), read-out: Percentage of TNF-α in a model group (%)
  activity at 10 µM: 51.2%
[1]; Mus musculus, RAW264.7, 20 μM, RAW264.7, LPS 100 ng/mL, read-out: Percentage of TNF-α in a model group (%)
  activity at 20 µM: 39.4%
[1]; Mus musculus, RAW264.7, 2 h, 10 μM, 3 h pretreatment, LPS 100 ng/mL 2 h, RAW264.7, read-out: Percentage of TNF-α in a model group (%)
  activity at 10 µM: 39.9 ± 2.88%
[1]; RAW264.7, LPS
  effective dose for inhibiting the expression of TNF-α in the macrophages: 2 to 20 µM
RAW264.7 cells [2]
  Percentage of CCK-8 in a model group (%): 103.97 ± 3.88% and 95.04 ± 3.22%
RAW264.7 cells [3]; 0.1 μM
  Percentage of CCK-8 in a model group (%): 108.6 ± 1.49%
RAW264.7 cells [3]; 0.5 μM
  Percentage of CCK-8 in a model group (%): 106.11 ± 2.44%
RAW264.7 cells [3]; 1 μM
  Percentage of CCK-8 in a model group (%): 106.01 ± 1.75%
RAW264.7 cells [3]; 2 μM
  Percentage of CCK-8 in a model group (%): 106.41 ± 3.04%
RAW264.7 cells [3]; 5 μM
  Percentage of CCK-8 in a model group (%): 105.55 ± 1.06%
RAW264.7 cells [3]; 10 μM
  Percentage of CCK-8 in a model group (%): 96.64 ± 1.45%
RAW264.7 cells [3]; 20 μM
  Percentage of CCK-8 in a model group (%): 95.83 ± 2.29%
[4]; 5 μM
  Change multiple of COX-2: 4.20 ± 0.16
  Change multiple of IL-1β: 62.02 ± 7.52
  Change multiple of IL-6: 23.17 ± 0.9
  Change multiple of TNF-α: 11.03 ± 0.87
[4]; 10 μM
  Change multiple of COX-2: 3.95 ± 0.9
  Change multiple of IL-1β: 28.51 ± 0.4
  Change multiple of IL-6: 16.09 ± 0.24
  Change multiple of TNF-α: 6.00 ± 1.96
[4]; 20 μM
  Change multiple of COX-2: 3.49 ± 0.0^8
  Change multiple of IL-1β: 12.58 ± 1.72
  Change multiple of IL-6: 6.53 ± 0.31
  Change multiple of TNF-α: 4.49 ± 0.81
[4]
  effective dose for anti-inflammatory activity (inhibition of expression of inflammation genes): 5 μM, 10 μM or 20 μM
[5]; 10 mg/kg i.p.
  Content of TNF-α in serum (% of Model): 78.38 ± 11.32 ^ % of Model
  Area percentage of alveolar cells (%): 38.68 ± 3.73%
[5]; 10 mg/kg i.p., i.p. LPS
  Change multiple of IL-1β: 9.68 ± 0.67
  Change multiple of IL-6: 47.5 ± 7.38
  Change multiple of TNF-α: 10.58 ± 1.72
  Change multiple of iNOS: 12.44 ± 1.28 ^
[5]; 10 mg/kg intraperitoneal 3 days
  Lung index (%): 0.714 ± 0.02 ^ %
[5]; 10 mg/kg intraperitoneal
  Body weight (Day 1): 25.42 ± 1.1
  Body weight (Day 2): 25.46 ± 1.2
  Body weight (Day 3): 25.77 ± 1.03
[5]; 50 mg/kg i.p.
  Content of TNF-α in serum (% of Model): 55.06 ± 5.96 % of Model
  Area percentage of alveolar cells (%): 30.43 ± 2.41 %
[5]; 50 mg/kg i.p., i.p. LPS
  Change multiple of IL-1β: 10.13 ± 1.72
  Change multiple of IL-6: 13.73 ± 1.56
  Change multiple of TNF-α: 5.55 ± 0.86
  Change multiple of iNOS: 5.42 ± 1.02
[5]; 50 mg/kg intraperitoneal 3 days
  Lung index (%): 0.672 ± 0.014 %
[5]; 50 mg/kg intraperitoneal
  Body weight (Day 1): 25.34 ± 0.57
  Body weight (Day 2): 26.16 ± 1.22
  Body weight (Day 3): 27.01 ± 1.08
[5]; 50 mg/kg, i.p. LPS
  pathological lung injury compared with the model group, in words: obviously relieving pathological lung injury
